{
  "source": "paper PMC11312998",
  "about": "“Molecular Pro-Apoptotic Activities of Flavanone Derivatives in Cyclodextrin Complexes: New Implications for Anticancer Therapy” (International Journal of Molecular Sciences, 2024)",
  "type_in_all_cases": "cell-based, human",
  "key": {"Hec-1-A": {"system": "Hec-1-A", "experiment": "Nitric oxide (RNS) generation, DAF-FM diacetate probe", "conditions": "IC50 concentration, 24 h", "protocol": "(§1) Diaminofluorescein-FM diacetate (DAF-FM diacetate, Invitrogen, Carlsbad, CA, USA), is a widely employed cell permeant fluorescent reagent for the detection and quantification of reactive nitrogen species (RNS), particularly nitric oxide (NO). […] However, upon reaction with NO, it undergoes a transformation that yields a highly fluorescent benzotriazole derivative (excitation/emission maxima: λex = 495, λem = 515 nm).\n(§2) The cells were seeded in black 96-well fluorometric microplates at a density of 10 × 10^3 cells per well. […] After incubation with the compounds, the medium was removed, the cell monolayer in the wells was washed twice with HBSS (140 mM NaCl, 5 mM KCl, 0.8 mM MgCl2, 1.8 mM CaCl2, 1 mM Na2HPO4, 10 mM HEPES and 1% glucose) and 50 μL of DAF-FM diacetate solution in HBSS was added to each well (final probe concentration 5 μmol/L). Cells were incubated with the probe for 30 min in the dark in an incubator (37 °C). After incubation, the probe was removed and replaced with fresh HBSS buffer and then incubated for an additional 30 min to allow for complete de-esterification of the intra cellular diacetates. After this time, the fluorescence was measured. The measurement was performed at the following excitation and fluorescence emission wavelengths: λex = 495 nm/λem = 515 nm. Fluorescence was measured on a Perkin-Elmer LS-5B spectrofluorometer (MA, USA). Fluorescence intensity values for control cells were arbitrarily set as 100%. The results are presented as percentages of control cells calculated on the basis of a comparison of the fluorescence intensity ratio of test samples and controls (100%) (fluorescence of samples was calculated as Δf in relation to the control)."}, "HCC38 [1]": {"system": "HCC38", "experiment": "Nitric oxide (RNS) generation, DAF-FM diacetate probe", "conditions": "IC50 concentration, 24 h", "protocol": "as §1, §2"}, "RBCs": {"system": "RBCs", "experiment": "Erythrocyte morphology, phase contrast microscopy", "conditions": "100 µmol/L; 24 h, 37 °C", "protocol": "The experiments on human blood were performed in accordance with Polish national guidelines, and the study protocols were approved by the Bioethics Committee of the Medical University of Lodz, Poland: approval no (RNN/104/20/KE). The blood samples were obtained from healthy donors at the Blood Donation Centre in Lodz. The procedure for […] for erythrotoxicity studies is given in a previous paper. The influence of the synthesized compounds, together with a reference compound on RBC membrane integrity, was performed by lysis assay, described elsewhere. Briefly, 2% RBC suspension in 0.9% NaCl was incubated at 37 °C for 24 h with the tested compounds at concentrations of 100 µmol/L, 50 µmol/L, 25 µmol/L, 10 µmol/L and 1 µmol/L. The samples were centrifuged at 3000 rpm for 10 min, and the absorbance of the supernatant was measured at 550 nm. The results are presented as a percentage of hemolysis where a sample containing 10 μL of 2.0% v/v Triton X-100 was regarded as a positive control contributing to 100% of hemolysis. A sample containing saline solution represented the spontaneous hemolysis of RBCs (control). The experiments were conducted using at least three different biological materials (n = 3). […] Additionally, erythrocyte morphology was evaluated using a phase contrast Opta-Tech inverted microscope at 400× magnification."}, "HCC38 [2]": {"system": "HCC38", "experiment": "Mitochondrial potential (ΔΨm), JC-1 method", "conditions": "IC50 concentration, 24 h", "text": "5,5,6,6-Tetrachloro-1,1,3,3-tetraethylbenzimidazolylcarbocyanine iodide (JC-1) is a cationic carbocyanine dye commonly used as a fluorescent probe to detect mitochondrial membrane depolarization. In living cells with an intact mitochondrial membrane, the lipophilic JC-1 penetrates the negatively charged mitochondrial matrix as a monomer. It then forms fluorescent aggregates with red-orange fluorescence (λex = 514 nm, λem = 590 nm). During depolarization of the mitochondrial membrane or in apoptotic cells, the concentration of JC-1 decreases, and the aggregates disintegrate into monomers emitting green fluorescence (λex = 514 nm, λem = 529 nm). The fluorescence ratio of aggregates (λem = 590 nm) and monomers (λem = 529 nm)—590 nm/529 nm—reflects the level of damage to the mitochondrial membrane.\nThe cells were seeded in black 96-well fluorometric microplates at a density of 10 × 10^3 cells per well. […] After incubation with the compounds, the medium was removed, the cell monolayer in the wells was washed twice with HBSS (140 mM NaCl, 5 mM KCl, 0.8 mM MgCl2, 1.8 mM CaCl2, 1 mM Na2HPO4, 10 mM HEPES and 1% glucose) and 50 μL of JC-1 solution in HBSS was added to each well (final probe concentration 5 μmol/L). Cells were incubated with the probe for 30 min in the dark in an incubator (37 °C). After incubation, the probe was removed and replaced with fresh HBSS buffer. Fluorescence measurements (Perkin-Elmer LS-5B spectrofluorometer, MA, USA) of JC-1 monomers and aggregates were made at the following excitation and emission wavelengths: λex = 514 nm, λem = 529 nm (monomers), λex = 514 nm, λem = 590 nm (aggregates). The results of the tested samples are presented as the percentage fluorescence ratio of JC-1 aggregates and JC-1 monomers relative to the fluorescence ratio of JC-1 aggregates and JC-1 monomers of the control, which was assumed to be 100%.\nA positive control was formed of cells pre-incubated with 5 µmol/L carbonyl cyanide m-chlorophenylhydrazone (CCCP), a chemical inhibitor of oxidative phosphorylation that acts by uncoupling the protons flowing along the electrochemical gradient from phosphorylation."}},
  "data": [
    {"molecule": "O=C1/C(=C/c2ccccc2)COc2ccccc21", "note": "[Compound 1]", "values": [
      {"measurement": "increase in nitric oxide production (DAF-FM)", "setting": "Hec-1-A", "value": "approximately 20%"},
      {"measurement": "increase in nitric oxide production (DAF-FM)", "setting": "HCC38 [1]", "value": "approximately 15%"}
    ]},
    {"molecule": "COc1cccc(/C=C2/C(=O)c3ccccc3OC2c2ccccc2)c1", "note": "(stereo not shown) [Compound 3]", "values": [
      {"measurement": "RBC morphology (in words)", "setting": "RBCs", "value": "appearance of single eryptocytes"}
    ]},
    {"molecule": "O=C1/C(=C/c2ccccc2)C(c2ccccc2)Oc2ccccc21", "note": "(stereo not shown) [Compound 5]", "values": [
      {"measurement": "change in mitochondrial potential (in words)", "setting": "HCC38 [2]", "value": "strong hyperpolarization"}
    ]}
  ]
}
